Where two headings read alike, the source gives them in different places.
Legend:
CB1 receptor [1] = target: CB1 receptor (UniProt P21554); assay: CB1 receptor affinity assay; format: binding; conditions: for Kd: read-out: CB1KD
Experimental: (§1) Mouse Tetrad and CB1 and CB2 receptor Affinity. The mouse tetrad and CB1 and CB2 receptor affinity assays were carried out as previously described in Wiley, J. L., Beletskaya, I. D., Ng, E. W., Dai, Z., Crocker, P. J., Mahadevan, A, Razdan, R. K., Martin, B. R., Resorcinols derivatives: a novel template for the delevopment of cannabinoid CB1/CB2 and CB2-selective agonists. J. Pharmacol. Exp. Ther. 301: 679-689, 2002.
(§2) The incorporation of sulfonaminde moieties is known to impart antagonistic activity in some classes of compounds. There is precedent for sulfonamide derivatives to show potent antagonist activity in peptidoleukotrienes (see for example, Matassa et al., J. Med. Chem. 1990, 33, 2621-2629; Jacobs et al., J. Med. Chem. 1993, 36, 394-409). In the development of the present invention, a sulfonamide moiety, SO2R, in which the identity of R was varied, was incorporated into the terminal position of a tetrahydrocannabinol (THC) side chain, which was also varied (saturated or unsaturated) as described above. The resulting compounds were tested for CB1 and CB2 receptor binding affinity, and cannabinoid agonist and antagonist properties using the mouse tetrad test, as described in Materials and Methods.

CB2 receptor = CB2 receptor (Homo sapiens, UniProt P34972); assay: CB2 receptor affinity assay; format: binding
Sequence of CB2 receptor (P34972 whole entry): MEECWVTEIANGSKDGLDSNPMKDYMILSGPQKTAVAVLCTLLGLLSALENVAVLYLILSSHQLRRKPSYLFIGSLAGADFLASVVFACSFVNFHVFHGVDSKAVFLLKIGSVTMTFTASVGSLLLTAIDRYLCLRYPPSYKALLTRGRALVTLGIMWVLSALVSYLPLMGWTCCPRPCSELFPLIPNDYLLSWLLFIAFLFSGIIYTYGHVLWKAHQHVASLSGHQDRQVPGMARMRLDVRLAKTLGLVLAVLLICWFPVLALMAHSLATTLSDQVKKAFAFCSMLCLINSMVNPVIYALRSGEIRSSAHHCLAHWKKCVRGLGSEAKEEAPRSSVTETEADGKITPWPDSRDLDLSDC
Experimental: as §1, §2

mice = assay: Mouse tetrad test (sedation, analgesia, hypothermia) following i.v. administration; format: in vivo; conditions: for ED50: iv
Experimental: as §1, §2
The compounds were tested for their CB1 and CB2 receptor binding ability, and their cannabinoid agonist and antagonist properties.

CB1 receptor [2] = target: T1, CB1 receptor (Rattus norvegicus, UniProt P20272); assay: GTPγS binding in rat brain membranes, compound alone (inverse agonism); format: biochemical; parameters: from tissue; host or cells: rat brain membranes; conditions: for GTPγS stimulation (1 μM): rat brain membranes
T1 sequence (P20272 whole entry): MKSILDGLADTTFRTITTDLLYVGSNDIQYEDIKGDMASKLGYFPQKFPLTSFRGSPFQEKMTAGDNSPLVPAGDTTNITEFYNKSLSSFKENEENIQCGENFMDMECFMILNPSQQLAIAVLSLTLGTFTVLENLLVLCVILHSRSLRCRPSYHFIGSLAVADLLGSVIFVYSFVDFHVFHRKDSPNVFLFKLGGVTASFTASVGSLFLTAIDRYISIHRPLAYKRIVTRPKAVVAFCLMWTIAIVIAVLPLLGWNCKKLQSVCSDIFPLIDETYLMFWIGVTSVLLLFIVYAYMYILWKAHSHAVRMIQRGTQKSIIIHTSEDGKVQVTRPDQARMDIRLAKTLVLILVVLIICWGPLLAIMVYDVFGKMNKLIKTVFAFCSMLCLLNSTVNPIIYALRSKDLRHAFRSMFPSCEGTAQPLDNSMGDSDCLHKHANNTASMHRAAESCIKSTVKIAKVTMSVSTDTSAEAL
Text: FIG. 2. Compound O-2050 lacks inverse agonism in GTPγS binding in rat brain membranes. X axis, concentration of O-2050 (M); Y axis, % stimulation of GTPγS binding.
In order to determine whether O-2050 had inverse agonist properties, the compound was examined alone in the GTPγS binding assay. […] The performance of O-2050 in this assay in comparison to two other compounds with unsaturated side chains and varying R groups (O-1991, R=ethyl, and O-1993, R=butyl) are given in Table 3.

CB1 receptor [3] = target: T2, CB1 receptor (Mus musculus, UniProt P47746); assay: Antagonism of WIN 55,212-2 inhibition of electrically induced contractions of mouse vas deferens; format: cell-based
T2 construct: O-2050 behaves as a CB1 receptor antagonist at naturally expressed CB1 receptors; from tissue; host or cells: mouse vas deferens
T2 sequence (P47746 whole entry): as the sequence (P20272 whole entry) above, with E95D counted along it
Experimental: FIG. 3. Compound O-2050 antagonism of WIN 55,212-2 in mouse vas deferens. X axis, concentration of WIN 55,212-2; Y axis, % inhibition of WIN 55,212-2 activity (mean % inhibition±standard error [s.e.] of the mean). Open circles=vehicle control (WIN 55212-2 added after pretreatment with dimethylsulfoxide (DMSO), the solvent in which the O-2050 was dissolved; open triangles: 1 nM O-2050 (WIN 55,212-2 added after pretreatment with 1 nM O-2050); filled circles: 10 nM O-2050 (WIN 55,212-2 added after pretreatment with 10 nM O-2050); filled triangles: 31.62 nM O-2050 (WIN 55,212-2 added after pretreatment with 31.62 nM O-2050); filled squares: 100 nM O-2050 (WIN 55,212-2 added after pretreatment with 100 nM O-2050.
These observations were extended by examining O-2050 in the mouse vas deferens, a smooth muscle preparation that is regulated by the cannabinoid system.

mouse vas deferens [4] = assay: Mouse vas deferens, compound alone (inverse agonism); format: cell-based; conditions: up to 1000 nM
Text: FIG. 4. Compound O-2050 lacks inverse agonism in GTPγS binding in mouse vas deferens. Y axis, % enhancement±s.e. (standard error of the mean) of GTPγS binding in mouse vas deferens by O-2050 at the indicated concentrations.
In order to determine whether O-2050 has inverse agonist properties in the mouse vas deferens, the compound was examined alone in this tissue preparation. […] O-2050 therefore differs from the putative inverse agonist, SR141716A, which does enhance the amplitude of these contractions in this bioassay system (e.g. see Pertwee et al., 1996, Eur. J. Pharmacol. 315: 195-201). […] Therefore, O-2050 lacks inverse agonist properties in yet another system that is regulated by the cannabinoids.

CB1 receptor [5] = target: T1, CB1 receptor; assay: Block of CP 55,940-stimulated GTPγS binding in rat brain tissue; format: biochemical; parameters: from tissue; host or cells: rat brain tissue
Experimental: FIG. 1. Compound O-2050 blocks CP 55,940 stimulation of GTPγS binding. O-2050 was tested for its ability to block stimulation of GTPγS binding by CP 55,940. […], log concentration of O-2050; Y axis, % stimulation by CP 55,940.
The above properties of O-2050 are indicative of an antagonist. Therefore, the ability of O-2050 to block the agonist effects of CP 55,940, a highly efficacious cannabinoid, in the in vitro GTPγS binding assay in rat brain tissue was tested. The assay is an in vitro functional measure of CB1 receptor activation.

mouse vas deferens [6] = conditions: literature, Pertwee et al. 1996; cited from earlier work
[7] = mouse tetrad, i.v. administration, read-out: Analgesia ED50
[8] = mouse tetrad, i.v. administration, read-out: Sedation ED50
[9] = mouse tetrad, i.v. administration, read-out: Temperature (hypothermia) ED50
[10] = mouse tetrad, i.v. administration

| Compound | CB1 receptor affinity (in words) (CB1 receptor [1]) | Kd (CB1 receptor [1]) | CB2 receptor affinity (in words) (CB2 receptor) | Kd (CB2 receptor) | Agonist potency in mouse tetrad test (in words) (mice; i.v. administration) | ED50 (mice; [7]) | ED50 (mice; [8]) | ED50 (mice; [9]) | Negative stimulation of GTPγS binding / agonist character (in words) (CB1 receptor [2]) | GTPγS stimulation (1 μM) (CB1 receptor [2]) | further results |
| --- | --- | --- | --- | --- | --- | --- | --- | --- | --- | --- | --- |
| CCS(=O)(=O)NCCCC#CCc1cc(O)c2c(c1)OC(C)(C)C1CC=C(C)CC21 (stereo not shown) [Compound O-1991, 3-Norpentyl 3-(6-ethanesulfamidohex-2-yne-yl)-Δ^8-tetrahydrocannabinol] | moderate affinity | 20 ± 13 nM | high affinity | 1.4 ± 0.2 nM | moderate to low pharmacological agonist potency | 0.9 mg/kg | 1.7 mg/kg | 0.8 mg/kg | weak agonists | 29% | – |
| CCCCS(=O)(=O)NCCCC#CCc1cc(O)c2c(c1)OC(C)(C)C1CC=C(C)CC21 (stereo not shown) [Compound O-1993] | moderate affinity | 70 ± 10 nM | only moderate affinity | 86 ± 7 nM | moderate to low pharmacological agonist potency | 14 mg/kg | 7.6 mg/kg | 12 mg/kg | weak agonists | 30% | – |
| CC1=CCC2C(C1)c1c(O)cc(C(C)(C)CCCCNS(=O)(=O)c3ccccc3)cc1OC2(C)C (stereo not shown) [Compound O-2048, 1,1-Dimethyl-5-phenylsulfamido-Δ^8-tetrahydrocannabinol] | high affinity | 4.1 ± 0.4 nM | high affinity | – | potent cannabinoid agonists | 2.8 mg/kg | 0.3 mg/kg | 5.6 mg/kg | – | – | – |
| CC1=CCC2C(C1)c1c(O)cc(CC#CCCCNS(C)(=O)=O)cc1OC2(C)C (stereo not shown) [Compound O-2050, 3-Norpentyl-3-(6-methanesulfamidohex-2-yne-yl)-Δ^8-tetrahydrocannabinol] | high affinity | 2.5 ± 0.4 nM | high affinity | 0.2 ± 0.06 nM | – | > 30 mg/kg | 4.3 mg/kg | > 30 mg/kg | failed to produce negative stimulation | 11% | Sedation (in words) (mice; mouse tetrad): only weakly active; Analgesia ED50 (mice; [10]): >30 mg/kg; Temperature (hypothermia) ED50 (mice; [10]): >30 mg/kg; Kb (CB1 receptor [3]): 1 nM; Dextral Shift of WIN 55,212-2 log concentration-response curve (CB1 receptor [3]; 1 nM O-2050): 2.8; Dextral Shift of WIN 55,212-2 log concentration-response curve (CB1 receptor [3]; 10 nM O-2050): 7.5; Dextral Shift of WIN 55,212-2 log concentration-response curve (CB1 receptor [3]; 20 nM O-2050): 15; Dextral Shift of WIN 55,212-2 log concentration-response curve (CB1 receptor [3]; 100 nM O-2050): 104; Enhancement of amplitude of electrically-evoked contractions (mouse vas deferens [4]): did not enhance; Kb (CB1 receptor [5]): 1 nM |
| CCS(=O)(=O)NCCCCC(C)(C)c1cc(O)c2c(c1)OC(C)(C)C1CC=C(C)CC21 (stereo not shown) [Compound O-2113, 1,1-Dimethyl-5-ethanesulfamido-Δ^8-tetrahydrocannabinol] | high affinity | 1.7 ± 0.3 nM | high affinity | – | potent cannabinoid agonists | 0.3 mg/kg | 0.4 mg/kg | 1.4 mg/kg | – | – | – |
| Cc1c(C(=O)NN2CCCCC2)nn(-c2ccc(Cl)cc2Cl)c1-c1ccc(Cl)cc1 [SR141716A] | – | – | – | – | – | – | – | – | – | – | Enhancement of amplitude of electrically-evoked contractions (mouse vas deferens [6]): does enhance |
| CCCCCc1cc(O)c2c(c1)OC(C)(C)[C@@H]1CCC(C)=C[C@@H]21 [THC, reference compound] | – | – | – | – | – | – | – | – | – | 15% | – |

Source: US7279500B2, “Sulfonamide cannabinoid agonists and antagonists” (Virginia Commonwealth University, priority 2002, dated 2007)
